Test results reported in ChEMBL document CHEMBL4680170, “Anticancer activity of 4'-phenyl-2,2':6',2″-terpyridines - behind the metal complexation” (Eur J Med Chem, 2020).
Calls of active or inactive are those of the source. No cut-off for these calls is given here.

How the values were obtained:
[1] = system: MCF7; test: Induction of apoptosis in human MCF-7 cells assessed as proportion of late apoptotic cells at 2.5 uM incubated for 48 hrs by Annexin V Muse cell analyzer based flow cytometry (reference value: 2.3%); type: functional
[2] = system: MCF7; test: Antiproliferative activity against human MCF-7 cells assessed as reduction in cell viability at 0.1 uM measured after 72 hrs in presence of FeCl3 by MTS assay; type: functional, cell-based
[3] = system: Calf thymus DNA; test: Binding affinity to calf thymus DNA assessed as DNA intercalation by measuring bathochromic shift incubated for 1.5 hrs by spectrophotometric analysis; type: tissue-based; conditions: Bos taurus
[4] = system: MCF7; test: Induction of apoptosis in human MCF7 cells assessed as increase in AIP protein expression at 2.5 uM incubated for 24 hrs by immunoblot analysis; type: functional, cell-based
[5] = system: NHDF; test: Cytotoxicity against human NHDF cells assessed as reduction in cell viability measured after 72 hrs by MTS assay; type: cell-based
[6] = system: MCF7; test: Induction of apoptosis in human MCF-7 cells assessed as proportion of viable cells at 2.5 uM incubated for 48 hrs by Annexin V Muse cell analyzer based flow cytometry (reference value: 94.2%); type: functional
[7] = system: MCF7; test: Antiproliferative activity against human MCF-7 cells assessed as reduction in cell viability at 0.1 uM measured after 72 hrs in presence of FeSO4 by MTS assay; type: functional, cell-based
[8] = system: MCF7; test: Induction of apoptosis in human MCF-7 cells assessed as proportion of late apoptotic cells at 1 uM incubated for 48 hrs by Annexin V Muse cell analyzer based flow cytometry (reference value: 2.3%); type: functional
[9] = system: MCF7; test: Antiproliferative activity against human MCF-7 cells assessed as reduction in cell viability measured after 72 hrs in presence of CuSO4 by MTS assay; type: functional, cell-based; conditions: MCF7, 72 h
[10] = system: U-251; test: Antiproliferative activity against human U251 cells assessed as reduction in cell viability measured after 72 hrs by MTS assay; type: functional, cell-based; conditions: U-251, 72 h
[11] = system: MCF7; test: Induction of cell cycle arrest in human MCF-7 cells assessed as accumulation at G0/G1 phase at 5 uM incubated for 24 hrs by Muse cell analyzer based flow cytometry (reference value: 47.4%); type: functional
[12] = system: MCF7; test: Induction of apoptosis in human MCF-7 cells assessed as proportion of early apoptotic cells at 5 uM incubated for 48 hrs by Annexin V Muse cell analyzer based flow cytometry (reference value: 3.05%); type: functional
[13] = system: MCF7; test: Induction of apoptosis in human MCF-7 cells assessed as proportion of necrotic cells at 5 uM incubated for 48 hrs by Annexin V Muse cell analyzer based flow cytometry (reference value: 0.45%); type: functional
[14] = system: MCF7; test: Induction of apoptosis in human MCF-7 cells assessed as proportion of late apoptotic cells at 5 uM incubated for 48 hrs by Annexin V Muse cell analyzer based flow cytometry (reference value: 2.3%); type: functional
[15] = system: MCF7; test: Antiproliferative activity against human MCF-7 cells assessed as reduction in cell viability at 0.1 uM measured after 72 hrs in presence of CdSO4 by MTS assay; type: functional, cell-based
[16] = system: Calf thymus DNA; test: Binding affinity to calf thymus DNA assessed as DNA intercalation by measuring hypochromic shift incubated for 1.5 hrs by spectrophotometric analysis; type: tissue-based; conditions: Bos taurus
[17] = system: MCF7; test: Induction of cell cycle arrest in human MCF-7 cells assessed as accumulation at G2/M phase at 1 uM incubated for 24 hrs by Muse cell analyzer based flow cytometry (reference value: 36.9%); type: functional
[18] = system: MCF7; test: Induction of cell cycle arrest in human MCF-7 cells assessed as accumulation at S phase at 1 uM incubated for 24 hrs by Muse cell analyzer based flow cytometry (reference value: 11.1%); type: functional
[19] = system: MCF7; test: Induction of apoptosis in human MCF-7 cells assessed as proportion of early apoptotic cells at 2.5 uM incubated for 48 hrs by Annexin V Muse cell analyzer based flow cytometry (reference value: 3.05%); type: functional
[20] = system: DNA; test: Induction of Escherichia coli supercoiled pUC19 plasmid DNA cleavage assessed as open circular form formation at 50 uM incubated for 60 mins by agarose gel electrophoresis analysis; type: nucleic-acid assay
[21] = system: MCF7; test: Induction of apoptosis in human MCF7 cells assessed as late apoptotic cells by measuring condensed and fragmented nuclei formation at 5 uM incubated for 24 hrs by AO/EB staining based fluorescence microscopy; type: functional, cell-based
[22] = system: MCF7; test: Potency index, ratio of oxaliplatin IC50 to test compound IC50 for anticancer activity against human MCF7 cells measured after 72 hrs by MTS assay; type: functional
[23] = system: MCF7; test: Induction of apoptosis in human MCF7 cells assessed as cytochrome c release into cytosol at 2.5 uM incubated for 24 hrs by immunoblot analysis; type: functional, cell-based
[24] = system: DNA; test: Induction of Escherichia coli supercoiled pUC19 plasmid DNA cleavage assessed as linear form formation at 50 uM incubated for 60 mins by agarose gel electrophoresis analysis; type: nucleic-acid assay
[25] = system: MCF7; test: Induction of apoptosis in human MCF7 cells assessed as decrease in p21 expression at 2.5 uM incubated for 24 hrs by immunoblot analysis; type: functional, cell-based
[26] = system: MCF7; test: Antiproliferative activity against human MCF-7 cells assessed as reduction in cell viability measured after 72 hrs in presence of ZnCl2 by MTS assay; type: functional, cell-based; conditions: MCF7, 72 h
[27] = system: MCF7; test: Induction of cell cycle arrest in human MCF-7 cells assessed as accumulation at G2/M phase at 5 uM incubated for 24 hrs by Muse cell analyzer based flow cytometry (reference value: 36.9%); type: functional
[28] = system: MCF7; test: Antiproliferative activity against human MCF-7 cells assessed as reduction in cell viability measured after 72 hrs in presence of FeSO4 by MTS assay; type: functional, cell-based; conditions: MCF7, 72 h
[29] = system: HCT-116; test: Antiproliferative activity against human HCT 116 cells assessed as reduction in cell viability measured after 72 hrs by MTS assay; type: functional, cell-based; conditions: HCT-116, 72 h
[30] = Drug uptake in human MCF7 cells mitochondria at 25 uM incubated for 2 hrs by MitoTracker Orange/LysoTracker staining based fluorescence microscopy; type: ADME; conditions: mcf7, 2 h
[31] = system: MCF7; test: Antiproliferative activity against human MCF-7 cells assessed as reduction in cell viability at 0.1 uM measured after 72 hrs in presence of CuSO4 by MTS assay; type: functional, cell-based
[32] = system: MCF7; test: Induction of apoptosis in human MCF-7 cells assessed as proportion of viable cells at 5 uM incubated for 48 hrs by Annexin V Muse cell analyzer based flow cytometry (reference value: 94.2%); type: functional
[33] = system: MCF7; test: Potency index, ratio of doxorubicin IC50 to test compound IC50 for anticancer activity against human MCF7 cells measured after 72 hrs by MTS assay; type: functional
[34] = system: MCF7; test: Induction of cell cycle arrest in human MCF-7 cells assessed as increase in cell accumulation at G0/G1 phase incubated for 24 hrs by Muse cell analyzer based flow cytometry; type: functional; conditions: dose 1-5 µM
[35] = system: MCF7; test: Induction of cell cycle arrest in human MCF-7 cells assessed as accumulation at G0/G1 phase at 2.5 uM incubated for 24 hrs by Muse cell analyzer based flow cytometry (reference value: 47.4%); type: functional
[36] = system: MCF7; test: Induction of cell cycle arrest in human MCF-7 cells assessed as accumulation at S phase at 2.5 uM incubated for 24 hrs by Muse cell analyzer based flow cytometry (reference value: 11.1%); type: functional
[37] = system: A549; test: Antiproliferative activity against human A549 cells assessed as reduction in cell viability measured after 72 hrs by MTS assay; type: functional, cell-based; conditions: A549, 72 h
[38] = system: MCF7; test: Induction of apoptosis in human MCF-7 cells assessed as proportion of viable cells at 1 uM incubated for 48 hrs by Annexin V Muse cell analyzer based flow cytometry (reference value: 94.2%); type: functional
[39] = system: MCF7; test: Induction of cell cycle arrest in human MCF-7 cells assessed as accumulation at G0/G1 phase at 1 uM incubated for 24 hrs by Muse cell analyzer based flow cytometry (reference value: 47.4%); type: functional
[40] = system: MCF7; test: Induction of cell cycle arrest in human MCF-7 cells assessed as accumulation at G2/M phase at 2.5 uM incubated for 24 hrs by Muse cell analyzer based flow cytometry (reference value: 36.9%); type: functional
[41] = system: MCF7; test: Induction of apoptosis in human MCF-7 cells assessed as proportion of early apoptotic cells at 1 uM incubated for 48 hrs by Annexin V Muse cell analyzer based flow cytometry (reference value: 3.05%); type: functional
[42] = system: MCF7; test: Induction of apoptosis in human MCF7 cells assessed as early apoptotic cells by measuring chromatin condensation and nuclear fragmentation at 5 uM incubated for 24 hrs by AO/EB staining based fluorescence microscopy; type: functional, cell-based
[43] = system: MCF7; test: Induction of apoptosis in human MCF-7 cells assessed as proportion of necrotic cells at 2.5 uM incubated for 48 hrs by Annexin V Muse cell analyzer based flow cytometry (reference value: 0.45%); type: functional
[44] = system: MCF7; test: Antiproliferative activity against human MCF-7 cells assessed as reduction in cell viability measured after 72 hrs by MTS assay; type: functional, cell-based; conditions: MCF7, 72 h
[45] = system: MCF7; test: Induction of apoptosis in human MCF7 cells assessed as p53 activation at 2.5 uM incubated for 24 hrs by immunoblot analysis; type: functional, cell-based
[46] = system: MCF7; test: Antiproliferative activity against human MCF-7 cells assessed as reduction in cell viability at 0.1 uM measured after 72 hrs in presence of ZnCl2 by MTS assay; type: functional, cell-based
[47] = system: MCF7; test: Antiproliferative activity against human MCF-7 cells assessed as reduction in cell viability measured after 72 hrs in presence of CdSO4 by MTS assay; type: functional, cell-based; conditions: MCF7, 72 h
[48] = system: MCF7; test: Antiproliferative activity against human MCF-7 cells assessed as reduction in cell viability measured after 72 hrs in presence of FeCl3 by MTS assay; type: functional, cell-based; conditions: MCF7, 72 h
[49] = system: MCF7; test: Induction of ROS generation in human MCF7 cells at 1 uM measured after 24 hrs by CellRox Green reagent/Hoechst 33342 staining based fluorescence analysis relative to control; type: functional
[50] = system: MCF7; test: Induction of apoptosis in human MCF-7 cells incubated for 48 hrs by Annexin V Muse cell analyzer based flow cytometry; type: functional; conditions: dose 1-5 µM
[51] = system: MCF7; test: Induction of apoptosis in human MCF-7 cells assessed as proportion of necrotic cells at 1 uM incubated for 48 hrs by Annexin V Muse cell analyzer based flow cytometry (reference value: 0.45%); type: functional
[52] = system: MCF7; test: Induction of cell cycle arrest in human MCF-7 cells assessed as accumulation at S phase at 5 uM incubated for 24 hrs by Muse cell analyzer based flow cytometry (reference value: 11.1%); type: functional
[53] = system: PANC-1; test: Antiproliferative activity against human PANC-1 cells assessed as reduction in cell viability measured after 72 hrs by MTS assay; type: functional, cell-based; conditions: PANC-1, 72 h
[54] = system: MCF7; test: Induction of ROS generation in human MCF7 cells at 1 uM measured after 1 hr by CellRox Green reagent/Hoechst 33342 staining based fluorescence analysis; type: functional, cell-based

CCCCCCCCCCn1cc(-c2ccc(-c3cc(-c4ccccn4)nc(-c4ccccn4)c3)cc2)nn1
Activity [1]: 16.25%
Activity [2]: Active
Activity [3]: Active
Activity [4]: Active
IC50 [5]: 20800 nM
Activity [6]: 69.9%
Activity [7]: Active
Activity [8]: 8.55%
IC50 [9]: 39 nM
IC50 [10]: 140 nM
Activity [11]: 66.2%
Activity [12]: 30.2%
Activity [13]: 6.9%
Activity [14]: 15.3%
Activity [15]: Active
Activity [16]: 18.2%
Activity [17]: 34.3%
Activity [18]: 16.3%
Activity [19]: 8.95%
Activity [20]: Active
Activity [21]: Active
Ratio IC50 [22]: 26
Activity [23]: Active
Activity [24]: Active
Activity [25]: Active
IC50 [26]: 1000 nM
Activity [27]: 24%
IC50 [28]: 1000 nM
IC50 [29]: 270 nM
Drug uptake [30]: Active
Activity [31]: Active
Activity [32]: 47.6%
Ratio IC50 [33]: 10
Activity [34]: Dose-dependent effect
Activity [35]: 57.4%
Activity [36]: 13.7%
IC50 [37]: 750 nM
Activity [38]: 79.1%
Activity [39]: 45.5%
Activity [40]: 25.2%
Activity [41]: 3.45%
Activity [42]: Active
Activity [43]: 4.9%
IC50 [44]: 40 nM
Activity [45]: inactive
Activity [46]: Active
IC50 [47]: 1000 nM
IC50 [48]: 1000 nM
Activity [49]: 140%
Activity [50]: Dose-dependent effect
Activity [51]: 8.9%
Activity [52]: 14.3%
IC50 ([53]; read-out: IC50): 440 nM
Activity [54]: Active

COc1cccc2c1C(=O)c1c(O)c3c(c(O)c1C2=O)C[C@@](O)(C(=O)CO)C[C@@H]3O[C@H]1C[C@H](N)[C@H](O)[C@H](C)O1 [DOXORUBICIN]
IC50 [10]: 50 nM
Activity [16]: 34.2%
IC50 [37]: 1060 nM
IC50 [44]: 410 nM
IC50 [53]: 730 nM
